For one series, the system named is β-amyloid plaques. As to the kind of experiment: MRI (7 Tesla, T2W/T1W) of post-mortem brain with thioflavin S histologic correlation after IV injection of probe in mice. The series is classed as in vivo, APP-PS1 transgenic mice. The note with it: for T1 plaque enhancement on T1W images / accelerated T2 relaxation on T2W images: APP-PS1 transgenic mouse, four hours.

Series [1] relates to amyloid deposits in AD temporal lobe cortex sections. Nature of the series: Labeling of amyloid deposits in vitro in AD temporal lobe cortex sections (film and emulsion autoradiography). Type of series: binding, human. As to conditions: for specificity of binding for type of amyloid deposit: AD temporal lobe cortex sections in vitro. The protocol:
The sections were washed with TBS, pH 7.0 four times and then rinsed briefly with distilled water twice. The sections were allowed to air dry overnight in a box with desiccant at 4° C.
Sections then underwent immunohistochemistry (IH) for amyloid using an anti-Aβ monoclonal mouse antibody (4G8, Senetek). Untreated sections were included as a positive control for antibody staining. After rehydrating with TBS, pH 7.6, the sections were fixed briefly with neutral-buffered, 10% formalin for 3 minutes. The sections were washed with TBS and then blocked with 1.5% normal horse serum in TBS for 30 minutes. The sections were incubated with the anti-Aβ primary antibody at a dilution of 1:1000 in 0.1% BSA/TBS overnight at 4° C. The primary antibody was then visualized using a Vectastain Elite ABC, immunoperoxidase kit with diaminobenzidine (DAB) as a substrate according to the instructions (Vector Laboratories). The sections were allowed to air dry overnight in a box with desiccant at 4° C.
FIGS. 2A-2B are the film autoradiographs. Note the presence of punctate areas of exposed film located predominantly in the regions corresponding to gray matter. This is similar to the distribution of amyloid deposits seen following IH of the tissue sections. It was possible to overlay the two for direct correspondence under the microscope.
In order to definitively correlate the IH with the iodinated peptide by colocalization, the sections were next dipped in an autoradiographic emulsion (Type NTB-3, Kodak). The slides were dipped in emulsion at 43° C. under Safelight illumination in a darkroom. The slides were chilled to solidify the emulsion and then allowed to air dry at room temperature for 3 hours in a light-proof box. The slides were exposed at 4° C. in a light-proof box with desiccant. The slides were developed with Dektol developer (Kodak) and fixed (Kodak) according to the instructions. The sections were dehydrated with successive changes of ethanol and xylene and then coverslipped with a xylene-based mounting media (CMS).

The test system of series [2] is parenchymal amyloid deposits. As to the kind of experiment: Labeling of amyloid deposits in vivo after i.v. injection in APP, PS1 transgenic mice. The note with it: 200 μg i.v., four hours, emulsion autoradiography, PS1 transgenic mice 27 weeks of age. The source says:
These mice develop amyloid deposits and behavioral deficits within 12 weeks of age. Hemizygous transgenic mice (Tg2576) expressing mutant human amyloid precursor protein (APP695) were mated with a second strain of hemizygous transgenic mice (M146L5.1) expressing mutant human presenilin 1 (PS1). Holcomb, L., et al., Nature Med. 4:97-100 (1998). The animals were genotyped for the expression of both transgenes by a dot blot method using a sample of mouse tail DNA. The mice were housed in a virus-free barrier facility under a 12-hour light/dark cycle, with ad lib access to food and water.
After four hours, each animal was perfused with PBS and fixed with neutral-buffered, 10% formalin following an overdose with sodium pentobarbital (75 mg/kg, i.p.). After cryoprotecting in 10% and 30% sucrose in PBS, frozen sections of each brain were cut with a freezing microtome and then processed with anti-Aβ IH and emulsion autoradiography for the presence of radiolabeled amyloid deposits using the same methods described above for the human AD sections.

For series [3] the following is noted: in vivo, iv; cited from earlier work.
Series [4] deals with BBB. As to conditions: mouse, in vivo. The protocol: PS and Vp Determination in Mice. […] Blood was sampled from the femoral artery at several intervals during the next 15 minutes. Whole blood was sampled directly, using heparinized micro-hematocrit capillary tubes and TCA extracted. The supernatant was separated from the pellet and both were counted in a gamma counter. The radioactivity in the pellet was expressed as a percentage of the total radioactivity found in both the pellet and supernatant. An aliquot of the peptide labeled with ^131I was then injected into the femoral vein 15 seconds prior to sacrifice of the animal to serve as a measure of residual plasma volume (Vp; μl/g). After collection of the final blood sample, the anesthetized animal was sacrificed. […] The permeability coefficient x surface area products (PS; 10^−6 ml/g/s) were then calculated using the Vp as a measure of residual plasma volume based on equations that have been discussed in detail elsewhere (Poduslo and Curran, supra (1996a); Poduslo and Curran, supra (1996b); Wengenack, et al., supra (1997); Poduslo, et al., supra (1998); Poduslo, et al., supra (2000); Poduslo, et al., supra (2001). Statistical evaluations of PS and Vp were performed using ANOVA followed by Bonferroni multiple comparisons.

Series [5] deals with β-amyloid plaques in human AD brain sections. As to the kind of experiment: Labeling of AD amyloid plaques in vitro with putrescine- and gadolinium-labeled Aβ. Type of series: binding. The note with it: equal amounts of radioactivity. An excerpt:
Labeling of AD Amyloid Plaques In Vitro with Putrescine- and Gadolinium-Labeled Aβ. […] The slides were dipped in emulsion, exposed, and developed according to the instructions. The sections were dehydrated with successive changes of ethanol and xylene and then coverslipped.

For series [6], the system named is BBB. The series is classed as in vivo, Sprague-Dawley rats. The note with it: rat. How it is done:
Poduslo, J. F. and Curran, G. L., Proc. Natl. Acad. Sci. USA 89:2218-2222 (1992); Poduslo, J. F. and Curran, G. L., Molec. Brain Res. 23:157-162 (1994); and Poduslo, J. F., et al., Proc. Natl. Acad. Sci. USA 9:5705-5709 (1994). Putrescine modification of synthetic human Aβ1-40 was performed by covalent linkage of the polyamine to carboxylic acid groups using carbodiimide at a pH of 6.7. Poduslo, J. F. and Curran, G. L., J. Neurochem. 66:1599-1609 (1996); and Poduslo, J. F. and Curran, G. L., J. Neurochem.
PS and Vp values were determined in normal adult male Sprague-Dawley rats (400-450 g) obtained from Harlan. […] Blood (200 μl) was sampled from the brachial artery at several intervals during the next 15 minutes.

Chain of parenchymal amyloid deposits (P05067 672-711 limits assumed): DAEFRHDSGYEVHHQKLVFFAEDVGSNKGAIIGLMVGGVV

With `O=C([O-])CN(CCN(CC(=O)[O-])CC(=O)O)CCN(CC(=O)[O-])CC(=O)O.[Gd+3]` [Gd-DTPA, gadolinium diethylenetriaminepentaacetic acid, reference compound], in the series on β-amyloid plaques (IV injection), the “T1 plaque enhancement on T1W images” value is on record as “No evidence of T1 plaque enhancement” and the “accelerated T2 relaxation on T2W images” value is recorded as “expected focal areas of T2 acceleration that corresponded to plaques”.
With `NCCCCN` [putrescine, reference compound], the “effect of unbound putrescine on binding of iodinated peptide to amyloid deposits” value in series [1] (10-fold excess unbound putrescine, 100 pM 125I-Aβ1-40 or 125I-PUT-Aβ1-40) is recorded as “no appreciable effect on binding of iodinated peptide”.
In the case of “Aβ 1-40: synthetic human amyloid β peptide 1-40, native (unmodified); radioiodinated for the measurements [reference compound]”, in series [1], the “specificity of binding for type of amyloid deposit” value is recorded as “specific for dense-core, neuritic-type amyloid deposits”. Besides, the “labeling of parenchymal amyloid deposits in vivo” value in series [2] is reported as “did not exhibit labeling of any parenchymal amyloid deposits”. Also, the “amount of radiolabeled peptide present in PBS-perfused brain” value in series [3] is given as 0.03%.
In the case of “Gd-Aβ: Aβ (1-40) with DTPA chelating arm at the amino terminus, chelated with gadolinium; Aβ to Gd 1:1”, the “effect of gadolinium labeling of Aβ on the PS value” in the series with BBB [4] is reported as “decrease in the PS value in five of the six brain regions, however, this was of non-significant magnitude”. The “exposure time required for detection of plaque binding (emulsion autoradiography)” value in series [5] is reported as “nine”. Moreover, in the series with β-amyloid plaques (IV injection), the “T1 plaque enhancement on T1W images” value is listed as “no significant plaque enhancement” and the “accelerated T2 relaxation on T2W images” value was “accelerated T2 relaxation was observed in plaques”.
“PUT Aβ 1-40: synthetic human Aβ1-40 with putrescine covalently linked to carboxylic acid groups using carbodiimide; radioiodinated for the measurements”: the “increase of permeability at the blood brain barrier by putrescine modification” value with BBB [6] is listed as “two-fold”. Also, the “specificity of binding for type of amyloid deposit” value in series [1] is reported as “specific for dense-core, neuritic-type amyloid deposits”. In addition, the “density of exposed silver grains on amyloid deposits (emulsion autoradiography)” value in series [1] (equal amounts of radioactivity and exposure time (6 days), versus 125I-Aβ1-40) is on record as “higher density of silver grains”. Further, in series [2], the “labeling of parenchymal amyloid deposits in vivo” value was “able to cross the BBB and bind to amyloid deposits in vivo”. Besides, the “amount of radiolabeled peptide present in PBS-perfused brain” value in series [3] is recorded as 0.35%.
For the molecule “putrescine-gadolinium-amyloid-β peptide [PUT-Gd-Aβ]”, the “exposure time required for detection of plaque binding (emulsion autoradiography)” value in series [5] was “one”. For the same molecule, the “T1 CNR (contrast-to-noise ratio)” value in the series with β-amyloid plaques (APP-PS1 mice, IV injection, T1W MRI, mean ± SEM, n = 15 plaques) was found to be 7.13 ± 1.03. For the same molecule, the “T1 PBR (plaque-to-background voxel intensity ratio)” value in the series with β-amyloid plaques (APP-PS1 mice, IV injection, T1W MRI, mean ± SEM, n = 15 plaques, maximum intensity) came to 1.24 ± 0.04. For the same molecule, the “T2 CNR (contrast-to-noise ratio)” value in the series with β-amyloid plaques (APP-PS1 mice, IV injection, T2W MRI, mean ± SEM, n = 15 plaques) is −8.95. Moreover, in the series on β-amyloid plaques (APP-PS1 mice, IV injection, T2W MRI, mean ± SEM, n = 15 plaques, minimum intensity), the “T2 PBR (plaque-to-background voxel intensity ratio)” value worked out at 0.29 ± 0.03. In the series with β-amyloid plaques (APP-PS1 mice, T1 images), the “fold increase of T1 CNR in injected mice” value is recorded as 4.2-9.4 fold and the “fold increase of T1 PBR in injected mice” value stood at 1.2 fold. The “cortical tissue volume occupied by enhanced plaque” value in the series on β-amyloid plaques (APP-PS1 mouse, T1W, interpretation of pixel proportion) is given as “roughly 10%”. Further, the “proportion of pixels within cortical ROI whose intensity exceeded the 4-S.D. threshold” value in the series with β-amyloid plaques (APP-PS1 mouse, T1W, mean (±S.D.) across 10 images, 812.5×812.5 μm ROI) is 9.9%. Also, in the series with β-amyloid plaques (IV injection), the “T1 plaque enhancement on T1W images” value is reported as “many focal areas of accelerated T1 relaxation visible as bright spots” and the “accelerated T2 relaxation on T2W images” value is “Numerous focal areas of accelerated T2 relaxation”. Further, the “MRI features in non-transgenic mouse (focal areas of accelerated T1 relaxation)” value in the series with β-amyloid plaques (non-transgenic mouse, compared with PBS-injected non-transgenic mouse (no focal T1 areas)) is on record as “yielded the same results”.

Source of the values: patent publication US7371365B2, “Methods for detecting parenchymal plaques in vivo” (Mayo Foundation for Medical Education and Research, priority 2000, dated 2008).
